Assay results as given in ChEMBL document CHEMBL3217673, “Synthesis of cyanine dyes and investigation of their in vitro antiprotozoal activities” (Medchemcomm, 2012).

Legend:
[1] = tested on: Plasmodium falciparum; assay: Antiprotozoal activity against chloroquine and pyrimethamine-resistant Plasmodium falciparum K1; format: functional, organism-based
[2] = tested on: Leishmania donovani; assay: Antiprotozoal activity against Leishmania donovani MHOMET-67/L82; format: functional, organism-based
[3] = tested on: Trypanosoma cruzi; assay: Antiprotozoal activity against Trypanosoma cruzi Tulahuen C2C4; format: functional, organism-based
[4] = Selectivity index, ratio of IC50 for rat L6 cells to IC50 for chloroquine and pyrimethamine-resistant Plasmodium falciparum K1; format: toxicity, cell-based; conditions: read-out: Ratio IC50
[5] = Selectivity index, ratio of IC50 for rat L6 cells to IC50 for Trypanosoma brucei rhodesiense STIB900; format: toxicity, cell-based; conditions: read-out: Ratio IC50
[6] = tested on: Trypanosoma brucei rhodesiense; assay: Antiprotozoal activity against Trypanosoma brucei rhodesiense STIB900; format: functional, organism-based
[7] = tested on: L6; assay: Cytotoxicity against rat L6 cells; format: cell-based
[8] = Selectivity index, ratio of IC50 for rat L6 cells to IC50 for Leishmania donovani MHOMET-67/L82; format: toxicity, cell-based; conditions: read-out: Ratio IC50
[9] = Selectivity index, ratio of IC50 for rat L6 cells to IC50 for Trypanosoma cruzi Tulahuen C2C4; format: toxicity, cell-based; conditions: read-out: Ratio IC50

Compound	IC50 [1]	IC50 [2]	IC50 [3]	selectivity ratio [4]	selectivity ratio [5]	IC50 [6]	IC50 [7]	selectivity ratio [8]	selectivity ratio [9]
CN1/C(=C/C=C/C=C/c2sc3ccccc3[n+]2C)Sc2ccccc21	133 nM	140 nM	60 nM	13.5	137	13 nM	1790 nM	12.7	29.9
CN1/C(=C/C=C/C=C/c2sc3ccc(Cl)cc3[n+]2C)Sc2ccc(Cl)cc21	63 nM	75 nM	2630 nM	13.9	106	8 nM	876 nM	11.8	0.3
CN1/C(=C/C=C/C=C/c2sc3ccc(F)cc3[n+]2C)Sc2ccc(F)cc21	228 nM	188 nM	1960 nM	9.2	1190	2 nM	2080 nM	11.1	1.1
